Source: US11351399B2, “Combined local delivery of therapeutic agents using interventional devices and radiation” (The University of North Carolina At Chapel Hill, priority 2014, dated 2022)
Values joined by “and” are separate entries in the source; they are usually repeats but may differ in a detail not shown here. Equal values may be shown once. Read-outs that look alike come from different tables or passages of the source.

How the values were obtained:
[1] = test system: SUM149 cell xenograft orthotopic breast cancer model; type: in vivo, mice; details: for median lifespan: control median 49 days; for tumor growth inhibition: weekly, four doses
Description: (§1) Iontophoretic delivery of cisplatin in was tested in both SUM149 cell xenograft and T11 syngeneic orthotopic breast cancer models. For both models, the efficacies of device cisplatin, IV cisplatin, device+IV cisplatin, device saline, and IV saline were compared.
(§2) For the SUM149 xenograft model, once the tumors reached ˜50 mm^3, the mice were treated with device cisplatin, IV cisplatin (5 mg/kg), device+IV cisplatin (5 mg/kg), device saline, or IV saline every week for four total doses, as shown in FIGS. 35A and 35B. […] For the T11 model, mice received two doses of device cisplatin, IV cisplatin (5 mg/kg), device+IV cisplatin (5 mg/kg), device saline, or IV saline every week for two total doses beginning five days after inoculation (˜20 mm^3), as shown in FIGS. 35C and 35D. The number of treatments varied between tumor models because of the differences in tolerability of treatments.

[2] = ex vivo cisplatin transport into human skin, modified Franz diffusion cell; details: 1 mA for 25 minutes, ~1 mm thick skin, ICP-MS
Description: Ex vivo drug transport studies were also conducted by transporting cisplatin into ˜1 mm thick human skin and were evaluated using a modified Franz diffusion cell with the test drug transport device directly above the skin instead of a donor chamber. During the testing, 1 or 0 mA of current was applied for 25 minutes, and the skin and solution were snap frozen, processed, and analyzed by inductively coupled plasma-mass spectrometry (ICP-MS).

[3] = biodistribution/PK of device and/or IV cisplatin in orthotopic SUM149 cell xenograft model; type: in vivo, mice
Description: Device delivery of cisplatin was evaluated using an orthotopic SUM149 cell xenograft model of breast cancer. In addition to studying iontophoretic delivery as compared to IV delivery of the cisplatin, concurrent device and IV delivery was added as an arm of the study based upon the low systemic exposure of cisplatin. In the study, a single treatment was administered after adhesion of the device to the skin above the tumor.

[4] = test system: T11 syngeneic orthotopic breast cancer model; experiment: tumor treatment efficacy of cisplatin, T11 syngeneic model; type: in vivo, mice; details: for median lifespan: control median 10 days; for tumor growth inhibition: two doses
Description: as §1, §2

[5] = test system: T11 syngeneic orthotopic breast cancer models; experiment: combined cisplatin and radiation efficacy, T11 syngeneic model; type: in vivo, mice; details: single dose
Description: Using T11 syngeneic orthotopic breast cancer models, radiotherapy was tested as an alternative and/or additional treatment method to device and IV cisplatin to compare the therapeutic effects of the various treatments. Mice received a single dose of radiation (10 Gy), device cisplatin, device cisplatin+radiation (10 Gy), IV cisplatin (5 mg/kg), IV cisplatin+radiation (10 Gy), device+IV cisplatin (5 mg/kg), and device cisplatin+IV cisplatin (5 mg/kg)+radiation (10 Gy) five days after inoculation (˜20 mm^3).

in vivo = details: mouse
From the text: Orthotopic PDX models of pancreatic cancer were used to characterize iontophoretic delivery of gemcitabine with respect to pharmacokinetics (PK).
In the present example, IV delivery of gemcitabine was compared to local iontophoretic delivery of gemcitabine.

[6] = ex vivo drug transport in pancreatic cancer PDX tumors; type: in vitro ADME; details: 2 mA for 10 minutes, device sutured onto ex vivo PDX tumor, UV-HPLC
Description: Ex vivo drug transport studies were conducted using pancreatic cancer patient-derived xenografts (PDXs). Test drug transport devices were sutured onto the ex vivo PDX tumors and a counter electrode was placed on the contralateral side of the tumor. 2 or 0 mA of current was applied for 10 minutes and the tumors were subsequently snap frozen, processed, and analyzed by UV-high performance liquid chromatography (HPLC).

[7] = PK study of device versus IV gemcitabine in non-tumor bearing dogs; type: in vivo
Description: Since there was no readily available large animal model for pancreatic cancer, a representative non-tumor bearing large animal model (Dogs) for humans was used. A laparotomy was performed and iontophoretic devices (shown in FIG. 41) were sutured directly onto the pancreas. A constant current of 10 mA was applied for 60 minutes using either 40 or 10 mg/mL gemcitabine (n=5, per group). […] For the IV treatment arm (n=4, per group), clinical protocol was followed for gemcitabine administration, which was an infusion of a 1 g/m^2 dose for thirty minutes, and the animal was euthanized 60 minutes after the start of the infusion. The plasma was sampled at 15 minute increments before, during, and after therapy. After therapy, the tissues were removed, flash-frozen, and analyzed by UV-HPLC.

[8] = test system: orthotopic PDX model of pancreatic cancer; details: for mice with tumor regression: twice a week up to 7 weeks
Description: Iontophoretic devices were surgically implanted into orthotopic PDX tumors when their size reached ˜200 mm^3, as determined by high resolution 3D ultrasound. Mice were treated twice a week for up to 7 weeks with device gemcitabine (20 mg/mL), device saline (0.9% NaCl), IV Gemcitabine (80 mg/kg), or IV saline. Tumor volumes were measured by volume displacement after completion of the scheduled treatment due to the interference of implanted devices with ultrasound imaging.

[9] = device+IV cisplatin (5 mg/kg) + radiation (10 Gy)

With `[NH2][Pt]([NH2])([Cl])[Cl]` [cisplatin] the median lifespan ([1]; IV cisplatin (5 mg/kg)) was 68 days, the “tumor γH2AX staining, device cisplatin versus IV cisplatin” value ([1]; device cisplatin, tumors post treatment) was “almost equivalent γH2AX staining” and the tumor growth inhibition ([1]; device cisplatin, similar to IV cisplatin until day 42) was “significant tumor growth inhibition”. For the same compound, the median lifespan ([1]; device cisplatin) was 60 days, the tumor growth inhibition ([1]; device+IV cisplatin (5 mg/kg)) was “significant tumor growth inhibition” and the median lifespan ([1]; device+IV cisplatin (5 mg/kg)) was over 100 days. The “tumor γH2AX staining” value ([1]; device+IV cisplatin, tumors post treatment) was “greater γH2AX staining”, the “skin of the mice after device treatment” value ([1]; mouse, in vivo) was “no scarring or deformation” and the “tolerability by kidney γH2AX staining compared to IV cisplatin and device+IV cisplatin” value ([1]; mouse, in vivo) was “better tolerated”. The “fold increase in platinum transported into the human skin versus passive diffusion (0 mA)” value [2] was 11.4 fold, the “Platinum Plasma Exposure (AUC)” value ([3]; Device + IV (5 mg/kg) Delivery) was 10650 ng·h/mL and the “Platinum Plasma Exposure (AUC)” value ([3]; Device Delivery, single treatment) was 1990 ng·h/mL. The “Platinum Plasma Exposure (AUC)” value ([3]; IV (5 mg/kg) Delivery) was 9910 ng·h/mL, the median lifespan ([4]; IV cisplatin (5 mg/kg)) was 22 days and the tumor growth inhibition ([4]; device cisplatin, similar to IV cisplatin until day 9) was “significant tumor growth inhibition”. For the same compound, the median lifespan ([4]; device cisplatin) was 20 days, the tumor growth inhibition ([4]; device+IV cisplatin (5 mg/kg)) was “significant tumor growth inhibition” and the median lifespan ([4]; device+IV cisplatin (5 mg/kg)) was 32 days. For the same compound, the “survival on addition of radiation” value ([5]; IV cisplatin (5 mg/kg) + radiation (10 Gy)) was “significantly improved survival”, the “survival on addition of radiation” value ([5]; device cisplatin + radiation (10 Gy)) was “significantly improved survival” and the “survival on addition of radiation” value [5, 9] was “significantly improved survival”. The “tumor growth inhibition and survival versus other groups” value [5, 9] was “outperformed all other treatment groups”.
In the case of `Nc1ccn([C@@H]2O[C@H](CO)[C@@H](O)C2(F)F)c(=O)n1` [gemcitabine], the gemcitabine in plasma (in vivo) is reported as “no detectable gemcitabine”, the “gemcitabine tumor AUC” value (in vivo) is reported as 348070 ng·h/mL and the “distance away from the devices at which gemcitabine was detected” value (from here on “distance away from the devices”) (in vivo; 0 h) is reported as 4.7 mm. The “distance away from the devices” value (in vivo; 3 h) was 3 mm, the “distance away from the devices” value (in vivo; 6 h) was 3 mm and the AUC (in vivo; iv, 80 mg/kg) was 65200 ng·h/mL. For the same compound, the “gemcitabine tumor AUC” value (in vivo; iv, 80 mg/kg) was 30780 ng·h/mL, the “fold increase in drug transport versus passive diffusion control (0 mA)” value [6] was 9.1 fold and the gemcitabine in plasma ([7]; IV infusion 1 g/m^2 for thirty minutes) was “detected in the plasma of all dogs”. For the same compound, the “distance of gemcitabine transport away from the electrode” value ([7]; device, 10 mg/mL) was 6.3 mm, the “fold increase in concentration of gemcitabine in the normal canine pancreas compared to IV administration” value ([7]; device, 10 mg/mL) was 2.0 fold and the drug in plasma ([7]; device, 10 mg/mL, 10 mA for 60 minutes) was “no drug detected”. The “distance of gemcitabine transport away from the electrode” value ([7]; device, 40 mg/mL) was 9.6 mm, the “fold increase in concentration of gemcitabine in the normal canine pancreas compared to IV administration” value ([7]; device, 40 mg/mL) was 7.1 fold and the “dogs with detectable levels of gemcitabine in plasma” value ([7]; device, 40 mg/mL, 10 mA for 60 minutes) was 2 out of 5. For the same compound, the “fold lower plasma gemcitabine levels than the IV treatment” value ([7]; device, 40 mg/mL, dogs with detectable levels) was “at least 25 fold”, the “mean log2-fold change in tumor volume” value ([8]; IV gemcitabine (80 mg/kg)) was 1.1 and the “mice with tumor regression” value ([8]; IV gemcitabine (80 mg/kg)) was 0/7. The “Ki-67 staining of tumors post treatment versus IV gemcitabine and saline arms” value ([8]; device gemcitabine) was “decrease in Ki-67 staining”, the “mean log2-fold change in tumor volume” value ([8]; device gemcitabine (20 mg/mL)) was −0.8 and the “mice with tumor regression” value ([8]; device gemcitabine (20 mg/mL), 52-day study) was 7 out of 7 and 7/7. For the same compound, the “tolerability (body weight gain, alanine transaminase, lipase) compared to IV gemcitabine” value ([8]; mouse, in vivo) was “better tolerated”.
